Assay results from the RepoRT retention time repository (doi:10.1038/s41597-019-0305-1).

Test: RP, Waters SunFire C18, 50 × 4.6 mm, 3.5 µm, 0.5 mL/min, estimated dead time 1.1 min; A: water + 0.1% formic acid; B: acetonitrile + 0.1% formic acid; gradient (min/%B) 0/5 7/100 8/100
Conditions: stereoisomer not certain

With `COc1cc(O)cc(C)c1C(=O)Oc1cc(C)c(C(=O)Oc2cc(C)c(C(=O)O)c(O)c2)c(O)c1` the LC retention time was 6.17 min.
For `Cc1cc(O)c(C)c2c1C(=O)Oc1cc(O)c(C(=O)O)c(C)c1O2`, the LC retention time was 5.27 min.
With `CCCCCC(=O)Cc1c(Oc2cc(OC)cc3cc(CCCCC)oc(=O)c23)c(O)cc(O)c1C(=O)O` the LC retention time was 7.09 min.
In the case of `CCCCCCCCCCCC1OC(=O)C(C)C1C(=O)O` (stereo not given), the LC retention time is reported as 7.46 min.
`Cc1cc(O)cc2oc3cc(O)c4c(c3c12)COC4=O` showed an LC retention time of 4.72 min.
Work on `O=C1OC2=C(c3ccccc3)C(=O)OC2=C1c1ccccc1` yielded an LC retention time of 7.64 min.
`Cc1cc(O)c2c(c1)oc1cc(O)cc(C)c12` showed an LC retention time of 7.4 min.
Compound `CCCCCc1cc(OC(=O)c2c(CCCCC)cc(OC)cc2OC)cc(OC)c1C(=O)O` has an LC retention time of 7.52 min.
`Cc1cc(O)c(C)c(O)c1C(=O)O` gave an LC retention time of 3.99 min.
Work on `CCOCc1c(O)c(C(=O)O)c(C)c2c1OC(=O)c1c(C)cc(O)c(C=O)c1O2` yielded an LC retention time of 7.27 min.
Work on `Cc1cc(O)c2c(=O)c3c(C)cc(O)cc3oc2c1` yielded an LC retention time of 6.34 min.
In the case of `COC(=O)C12Oc3ccc(-c4ccc5c(c4O)C(O)=C4C(=O)CC(C)C(O)C4(C(=O)OC)O5)c(O)c3C(O)=C1C(=O)CC(C)C2O` (stereo not given), the LC retention time is reported as 6 min.
In the case of `Cc1cc(O)c(C=O)c2c1C(=O)Oc1c(COC(=O)CCC(=O)O)c(O)c(C(=O)O)c(C)c1O2`, the LC retention time is reported as 6.28 min.
Compound `COc1cc2oc(C)cc(=O)c2c(O)c1COC(=O)C=C(C)CC(=O)O` has an LC retention time of 5.06 min.
`O=C(NC(Cc1ccccc1)C(=O)O)C(=C1OC(=O)C(c2ccccc2)=C1O)c1ccccc1` (stereo not given) showed an LC retention time of 7.27 min.
`COc1cc(C)c(C)c(OC(=O)c2c(C)c(C=O)c(O)c(C=O)c2O)c1C` gave an LC retention time of 6.73 min.
`COC(=O)C(=C1OC(=O)C(c2ccccc2)=C1O)c1ccccc1OC` showed an LC retention time of 6.75 min.
Work on `CC(=O)OCC1OC(Oc2c(C)c(O)c3c(=O)cc(C)oc3c2C)C(O)C(O)C1O` (stereo not given) yielded an LC retention time of 4.2 min.
Work on `CC(=O)OCC1OC(Oc2cc3oc(C)cc(=O)c3c(O)c2C)C(OC(C)=O)C(O)C1O` (stereo not given) yielded an LC retention time of 4.69 min.
`CCCCCc1cc(OC)cc(O)c1C(=O)O` gave an LC retention time of 6.19 min.
In the case of `CCCc1cc(O)cc(O)c1`, the LC retention time is reported as 3.97 min.
With `CCCc1cc(OC)cc(O)c1C(=O)Oc1c(OC)cc(CCC)c(C(=O)O)c1O` the LC retention time was 7.83 min.
With `COC(=O)c1c(C)cc(O)cc1O` the LC retention time was 4.63 min.
For `COc1cc(C)c(C(=O)Oc2c(C)cc(O)c(C=O)c2O)c(O)c1C(=O)O`, the LC retention time was 5.7 min.
Compound `CCCCCC(=O)Cc1cc(OC)c(O)c2c1C(=O)Oc1cc(O)c(C(=O)O)c(CCCCC)c1O2` has an LC retention time of 6.95 min.
Compound `CC(C)CC(NC(=O)c1ccccc1)C(=O)OCC(Cc1ccccc1)NC(=O)c1ccccc1` (stereo not given) has an LC retention time of 6.82 min.
With `CCCCCc1cc(OC(=O)c2c(CCCCC)cc(O)cc2OC)cc(OC)c1C(=O)O` the LC retention time was 6.6 min.
`CCCCCC(=O)Cc1cc(O)cc(O)c1C(=O)Oc1cc(CC(=O)CCCCC)c(C(=O)O)c(OC)c1` gave an LC retention time of 6.03 min.
In the case of `CCCCCC(=O)Cc1cc(OC)cc(O)c1C(=O)Oc1cc(CCCCC)c(C(=O)O)c(OC)c1`, the LC retention time is reported as 7.1 min.
In the case of `COC1=CC(=O)c2c(O)c3c(c(O)c2C1=O)C(O)C(C)OC3=O` (stereo not given), the LC retention time is reported as 4.23 min.
`CCCc1cc(OC(=O)c2c(O)cc(OC)cc2CCC)cc(O)c1C(=O)O` gave an LC retention time of 7.33 min.
Work on `COCc1c(O)c(C(=O)O)c(C)c2c1OC(=O)c1c(C)cc(O)c(C=O)c1O2` yielded an LC retention time of 5.99 min.
For `CCCCCC(=O)Cc1cc(O)c(O)c2c1C(=O)Oc1cc(O)c(C(=O)O)c(CCCCC)c1O2`, the LC retention time was 6.62 min.
Compound `CCCCCCCCCCCCCCC(C(=O)O)C(CC(=O)O)C(=O)O` (stereo not given) has an LC retention time of 7.46 min.
Work on `CCCCCCCCCCCCCC1OC(=O)C(C)C1C(=O)O` (stereo not given) yielded an LC retention time of 8 min.
`COc1cc(C)c(C(=O)Oc2c(C)c(C(=O)O)c(O)c(C=O)c2O)c(O)c1C(=O)O` showed an LC retention time of 5.8 min.
Compound `O=C1NC(c2ccccc2)CC(=O)N2CCCC2C(=O)NC(c2ccccc2)CC(=O)N2CCCC12` (stereo not given) has an LC retention time of 5.08 min.
For `COC(=O)c1c(C)cc(OC(=O)c2c(C)cc(OC(=O)c3c(C)cc(OC)cc3O)cc2O)cc1O`, the LC retention time was 7.74 min.
For `COc1cc(OC(=O)c2c(C)cc(O)cc2O)cc(C)c1C(=O)Oc1cc(C)c(C(=O)O)c(O)c1`, the LC retention time was 6.2 min.
Compound `CCCCCc1cc(O)cc(OC)c1C(=O)Oc1c(O)cc(CCCCC)c(C(=O)O)c1O` has an LC retention time of 6.54 min.
For `CCC(C)C(NC(=O)c1ccccc1)C(=O)OCC(NC(=O)c1ccccc1)C(C)C` (stereo not given), the LC retention time was 6.17 min.
Compound `CCCCCc1cc(O)cc(O)c1C(=O)O` has an LC retention time of 5.24 min.
Work on `CC(=O)OC1C(Oc2cc3oc(C)cc(=O)c3c(O)c2C)OC(CO)C(O)C1O` (stereo not given) yielded an LC retention time of 4 min.
`CC1CCC2(C(=O)O)CCC3(C)C(=CCC4C5(C)CCC(O)C(C)(C)C5CCC43C)C2C1C` (stereo not given) gave an LC retention time of 7.89 min.
In the case of `Cc1cc(O)c2c(c1)C(=O)c1c(c(O)cc(O)c1-c1c(C)cc(O)c3c1C(=O)c1cc(O)cc(O)c1C3=O)C2=O`, the LC retention time is reported as 6.58 min.
In the case of `COc1cc(C)c(C(=O)Oc2cc(C)c(C(=O)O)c(O)c2C)c(OC)c1C`, the LC retention time is reported as 7.09 min.
Work on `CCCCCC1=CC(=O)C=C(OC)C12C(=O)Oc1cc(O)c(C(=O)O)c(CCCCC)c12` (stereo not given) yielded an LC retention time of 7.48 min.
Compound `CCCCCc1cc(O)c(OC(=O)c2c(CCC)cc(OC)cc2OC)c(O)c1C(=O)O` has an LC retention time of 6.84 min.
Work on `CCCCCc1cc(OC(=O)c2c(O)cc(OC)cc2CC(=O)CCC)cc(O)c1C(=O)O` yielded an LC retention time of 7.28 min.
Compound `COc1cc(O)c2c(c1)C(=O)c1cc(C=O)cc(O)c1C2=O` has an LC retention time of 6 min.
`COc1cc(C)c(C(=O)Oc2cc(C)c(C(=O)O)c(O)c2)c(O)c1` showed an LC retention time of 6 min.
For `Cc1cc(O)cc(O)c1C(=O)Oc1cc(C)c(C(=O)Oc2c(O)cc(O)c(C(=O)O)c2C)c(O)c1`, the LC retention time was 5.63 min.
For `COC(=O)C(=C1OC(=O)C(c2ccc(OC)cc2)=C1O)c1ccccc1`, the LC retention time was 6.71 min.
`Cc1cc(OC(=O)c2c(C)cc(O)c(O)c2O)cc(O)c1C(=O)O` showed an LC retention time of 4.69 min.
With `COc1cc(C)c(C(=O)Oc2cc(C)c(C(=O)O)c(O)c2C)c(O)c1C(=O)O` the LC retention time was 5.79 min.
Compound `COc1cc(O)cc(C)c1C(=O)O` has an LC retention time of 2.35 min.
In the case of `COc1cc(C)c(C(=O)Oc2cc(C)c(C(=O)O)c(O)c2C)c(O)c1C=O`, the LC retention time is reported as 6.35 min.
For `CCCCCC(=O)Cc1cc(O)cc(O)c1C(=O)Oc1cc(O)c(C(=O)O)c(CCCCC)c1`, the LC retention time was 6.74 min.
For `O=C1OC(=C2C(=O)Oc3ccccc32)C(O)=C1c1ccccc1`, the LC retention time was 7.68 min.
Work on `COC(=O)C(=C1OC(=O)C(c2ccccc2)=C1O)c1ccccc1` yielded an LC retention time of 7.49 min.
Work on `CCCc1cc(OC)cc(O)c1C(=O)Oc1c(O)cc(CCC)c(C(=O)OC)c1O` yielded an LC retention time of 7.11 min.
With `O=C(O)c1cc(O)c2c(c1)C(=O)c1cc(O)cc(O)c1C2=O` the LC retention time was 5.06 min.
Compound `CCCCCc1cc(OC(=O)c2c(O)cc(O)cc2CCCCC)cc(O)c1C(=O)O` has an LC retention time of 7.28 min.
`COC(=O)c1c(C)c(C)c(OC(=O)c2c(C)c(C)c(O)c(C=O)c2O)c(C)c1O` gave an LC retention time of 7.84 min.
For `Cc1cc(O)c(C=O)c(O)c1C(=O)OCc1cc(O)c(C)c(O)c1C(=O)O`, the LC retention time was 6.74 min.
